The values that follow come from patent US9120833B2, “Polyfluoroalkylphosphonic acid ester and process for producing the same” (Unimatec Co., Ltd., priority 2009, dated 2015).

The conditions of this series: 3 wt. % in base oil CnF2n+1(CF2CF2CF2O)mCnF2n+1 (viscosity at 40° C.: 210 mm^2/s), stirred under heating, stored at 25° C. for 24 hours. As for the experimental part:
The phosphonic acid ester (3 wt. %) obtained in Example 1 or 7 was added to a base oil of the formula: CnF2n+1(CF2CF2CF2O)mCnF2n+1 (viscosity at 40° C.: 210 mm^2/s), and the mixture was sufficiently stirred under heating. After the mixture was stored at 25° C. for 24 hours, the solubility of the phosphonic acid ester in the base oil was visually observed.

Molecules are shown by their SMILES.

For the compound `CCOP(=O)(CCC(F)(F)C(F)(F)C(F)(F)C(F)(F)C(F)(F)CC(F)(F)C(F)(F)C(F)(F)C(F)(F)F)OCC` [Example 1, CF3(CF2)3(CH2CF2)(CF2CF2)2(CH2CH2)P(O)(OCH2CH3)2], the “solubility of the phosphonic acid ester in the base oil (visually observed)” value is “dissolved into an almost transparent solution”.
